Assay results reported in US8551967B2, “Formulations with anti-tumour action” (Gentium SpA, priority 2003, dated 2013).
Like-named read-outs stand apart in the source and are kept apart here.

Key:
mammary carcinoma 13762 = assay: Tumour growth delay in rats carrying mammary carcinoma 13762; conditions: for Days to reach 500 mm^3 / TGD: chemotherapy alone, ip days 8 & 18; for Days to reach 500 mm^3: tumour implanted day 0; for TGD: versus controls
Description: The hepatotoxin monocrotaline and the AA carmustine (BCNU), alone or in association with DF, were tested in vivo in an experimental model which used rats carrying mammary carcinoma 13762.
Table 1. […] The tumour was implanted on day 0 and the chemotherapy was administered on day 8 and day 18.

bovine endothelial cells = assay: Cytotoxicity of alkylating agents with and without DF in bovine endothelial cells in culture; format: cell-based; conditions: DF 50 μg/ml with alkylating agents
Description: In the following study, DF was examined in combination with antiblastic cytotoxic agents in a model of mouse EMT-6 mammary carcinoma cells and in bovine endothelial cells, in cell cultures and in an experimental model in which rats carrying tumours subjected to high doses of chemotherapy were used.

[1] = system: mouse EMT-6 mammary carcinoma cells; assay: Cytotoxicity of alkylating agents with and without DF in EMT-6 cells in culture
[2] = system: Lewis pulmonary carcinoma; assay: Tumour growth and pulmonary metastases in mice carrying Lewis pulmonary carcinoma; format: in vivo; conditions: DF added to paclitaxel with or without carboplatin
Excerpt: The mechanism underlying these effects remains to be explained, but it is possible that the anti-adhesive properties of DF are involved, given the role of cell adhesion in the mechanisms implicated in drug resistance (8, 9).

MM-1S human MM cells = format: in vivo; conditions: for Tumor volume: P<0.05
Description: It was also tested whether DF has in vivo activity in a murine model of human multiple myeloma (MM). Sixty male SCID/NOD mice (6-8 weeks old) were irradiated (450 rads) and, 24 hrs later, injected s.c. with 5×10^6 MM-1S human MM cells. Upon formation of palpable tumors, mice were randomly assigned to 6 cohorts (10 mice each) receiving a) vehicle; b) DF (i.v. 450 mg/kg b.i.d); c) melphalan (MEL) 2.5 mg/kg i.p. once weekly; d) cyclophosphamide (CTX) 50 mg/kg i.p., on days 8, 10, 12, 20, 22 and 24; e) and f) combinations of DF (300 mg/kg i.v.) with MEL or CTX, respectively. Mice were monitored q3 days for body weight, potential toxicity, and electronic caliper-based tumor volumes.
The major endpoints for efficacy were a) tumor volume changes and b) overall survival (time-to-sacrifice, performed when tumor diameters>2 cm).

MM cells = assay: In vitro direct cytotoxicity against MM cells; format: cell-based; conditions: DF alone
[3] = versus cytotoxic therapy alone, data not presented
[4] = monocrotaline or BCNU together with DF

Compound: O=NN(CCCl)C(=O)NCCCl [BCNU, carmustine]
- Days to reach 500 mm^3 (mammary carcinoma 13762): 18.0 ± 2.5 days
- TGD (mammary carcinoma 13762): 3.4 days

Compound: C[C@H]1C(=O)O[C@@H]2CCN3CC=C(COC(=O)[C@](C)(O)[C@]1(C)O)[C@H]23 [Monocrotaline, monocrotaline]
- Days to reach 500 mm^3 (mammary carcinoma 13762): 15.6 ± 1.0 days
- TGD (mammary carcinoma 13762): 1.0 days

Compound: defibrotide [DF]
- Increase in cytotoxicity of AAs in association with DF (bovine endothelial cells): no increase in cytotoxicity
- Increment in the killing of tumour cells by 4HC ([1]; DF 50 μg/ml before and during, or during and after 4HC, 4HC 50-250 μmol): 2 logarithmic units
- Effect of DF on cytotoxicity of melphalan ([1]; DF before and during or during and after melphalan): did not show any significant effect
- Effect of DF on cytotoxicity of carboplatin ([1]; DF with carboplatin, compared with thiotepa result): A similar result
- Toxicity [2]: without showing an obvious increase in toxicity
- Number of pulmonary metastases [2, 3]: reduction
- Tumour growth (TGD) [2, 3]: reduction in tumour growth
- Tumor volume (MM-1S human MM cells; DF 300 mg/kg i.v. with MEL or CTX versus single-agent chemotherapy): significantly lower tumor volumes than the respective single-agent cytotoxic chemotherapy
- Tumor volume (MM-1S human MM cells; DF i.v. 450 mg/kg b.i.d versus control mice): significantly lower tumor volumes than in control mice
- Tolerability (hemorrhagic complications, body weight) (MM-1S human MM cells; DF single agent (i.v. 450 mg/kg b.i.d) or 300 mg/kg i.v. with MEL or CTX, P>0.05): well tolerated without hemorrhagic complications or body weight loss
- Overall survival (time-to-sacrifice), Kaplan-Meier (MM-1S human MM cells; DF single agent or with MEL or CTX, versus vehicle or MEL- or CTX-treated groups, P<0.001 log-rank): statistically significant prolongation of overall survival
- Direct in vitro cytotoxic effect (MM cells): have not shown a significant direct in vitro cytotoxic effect
- Tumour growth delay (TGD), in words (mammary carcinoma 13762; DF alone versus control, p<0.05, repeat study): significant tumour growth delay
- Tumour growth delay (TGD), in words (mammary carcinoma 13762; DF associated with CTX and BCNU, p<0.04, greater than each agent alone, repeat study): particularly significant
- Additional toxicity in the animals (mammary carcinoma 13762; [4]): no additional toxicity
- Tumour growth delay (TGD), in words (mammary carcinoma 13762; [4]): significant tumour growth delay
